Measurements as given in patent publication US5753648A, “Tricyclic benzazepine vasopressin antagonists” (American Cyanamid Company, priority 1996, dated 1998).
Counter-ions that a name gives are not always drawn.

Experiments:
[1] = molecular target: T1, Rat Kidney Medullary V2 Receptors (Rattus norvegicus, UniProt Q00788); assay: biochemical; assay type: binding
T1 construct: Medullary tissues from rat kidneys are dissected out; from tissue; host or cells: rat kidney medulla membranes
Description: Binding Assay to Rat Kidney Medullary V2 Receptors
Medullary tissues from rat kidneys are dissected out, cut into small pieces and soaked in a […] sodium chloride solution containing 1.0 mM EDTA with many changes of the liquid phase, until the solution is clear of blood. The tissue is homogenized in a 0.25M sucrose solution containing 1.0 mM EDTA and 0.1 mM PMSF using a Potter-Elvehjem homogenizer with a teflon pestle. The homogenate is filtered through several layers (4 layers) of cheese cloth. The filtrate is rehomogenized using a dounce homogenizer, with a tight fitting pestle. The final homogenate is centrifuged at 1500×g for 15 min. The nuclear pellet is discarded and the supernatant fluid recentrifuged at 40,000×g for 30 min. The resulting pellet formed contains a dark inner part with the exterior, slightly pink. The pink outer part is suspended in a small amount of 50.0 mM Tris.HCl buffer, pH 7.4. The protein content is determined by the Lowry's method (Lowry et al, J. Biol. Chem., 1953). The membrane suspension is stored at -70° C., in 50.0 mM Tris.HCl, containing 0.2% inactivated BSA and 0.1 mM PMSF in aliquots of 1.0 ml containing 10.0 mg protein per ml of suspension until use in subsequent binding experiments.
For binding experiments, the following is added in μl volume to wells of a 96 well format of a microtiter plate: 100.0 μl of 100.0 mM Tris.HCl buffer containing 0.2% heat inactivated BSA, 10.0 mM MgCl2 and a mixture of protease inhibitors: leupeptin, 1.0 mg %; aprotinin, 1.0 mg %; 1,10-phenanthroline, 2.0 mg %; trypsin inhibitor, 10.0 mg % and 0.1 mM PMSF, 20.0 μl of [^3 H] Arginine^8, vasopressin (S.A. 75.0 Ci/mmole) at 0.8 nM and the reaction initiated by the addition of 80.0 μl of tissue membranes (200.0 μg tissue protein). The plates are left undisturbed on the bench top for 120 min. to reach equilibrium. Non-specific binding is assessed in the presence of 1.0 μM of unlabeled ligand, added in 20 μl volume. For test compounds, these are solubilized in 50% dimethylsulfoxide (DMSO) and added in 20.0 μl volume to a final incubation volume of 200 μl. Upon completion of binding, the content of each well is filtered off, using a Brandel® cell Harvester (Gaithersburg, Md.). The radioactivity trapped on the filter disk by the ligand-receptor complex is assessed by liquid scintillation counting in a Packard LS Counter, with an efficiency of 65% for tritium. The data are analyzed for IC50 values by the LUNDON-2 program for competition (LUNDON SOFTWARE, Ohio).

oxytocin receptors = molecular target: T2, oxytocin receptors (Rattus norvegicus, UniProt P70536); assay: Oxytocin Receptor Binding; conditions: for IC50: rat uterine membranes, [3H]oxytocin
T2 sequence (P70536 1-388): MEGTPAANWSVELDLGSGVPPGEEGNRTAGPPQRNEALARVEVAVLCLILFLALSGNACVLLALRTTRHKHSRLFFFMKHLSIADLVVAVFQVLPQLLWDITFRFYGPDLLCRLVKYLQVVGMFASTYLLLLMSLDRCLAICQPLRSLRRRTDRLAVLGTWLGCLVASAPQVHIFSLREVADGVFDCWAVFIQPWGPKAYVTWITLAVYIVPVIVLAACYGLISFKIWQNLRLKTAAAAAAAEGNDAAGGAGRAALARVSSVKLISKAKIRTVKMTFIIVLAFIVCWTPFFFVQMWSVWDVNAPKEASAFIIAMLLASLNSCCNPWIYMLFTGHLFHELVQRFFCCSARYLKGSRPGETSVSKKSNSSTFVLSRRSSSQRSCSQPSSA

T1 sequence (Q00788 whole entry): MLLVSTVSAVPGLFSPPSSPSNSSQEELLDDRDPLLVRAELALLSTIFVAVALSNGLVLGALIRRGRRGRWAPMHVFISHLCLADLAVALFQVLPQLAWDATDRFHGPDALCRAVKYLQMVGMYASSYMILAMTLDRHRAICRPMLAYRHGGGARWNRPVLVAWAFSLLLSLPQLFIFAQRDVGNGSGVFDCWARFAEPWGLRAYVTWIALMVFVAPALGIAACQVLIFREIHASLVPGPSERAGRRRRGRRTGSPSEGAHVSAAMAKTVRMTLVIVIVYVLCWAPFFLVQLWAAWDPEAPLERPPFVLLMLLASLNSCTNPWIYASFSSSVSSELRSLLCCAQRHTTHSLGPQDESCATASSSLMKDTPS

SMILES | inhibition at 1 µM [1] [%] | inhibition at 10 µM (oxytocin receptors; dose 10 μM) [%] | IC50 (oxytocin receptors) [nM] | inhibition at 10 µM [1] [%] | other results
CNc1ncccc1C(=O)Nc1ccc(C(=O)N2Cc3cccn3Cc3ccccc32)cc1 [Example 334, N-[4-(5H-Pyrrolo[2,1-c][1,4]benzodiazepin-10(11H)-ylcarbonyl)phenyl]-2-(methylamino)pyridine-3-carboxamide] | 79 | – | – | – | inhibition at 1 µM (oxytocin receptors; dose 1 μM): 5%
CN1CCN(c2ncccc2C(=O)Nc2ccc(C(=O)N3Cc4cccn4Cc4ccccc43)cc2)CC1 [Example 331, N-[4-(5H-Pyrrolo[2,1-c][1,4]benzodiazepin-10(11H)-ylcarbonyl)phenyl]-2-[N-methylpiperazinyl]-pyridine-3-carboxamide Hydrochloride] | 43 | – | – | – | Oxytocin Binding Assay % Inhibition (oxytocin receptors; dose 1 μM, Hydrochloride): 13%
Cc1occc1C(=O)Nc1ccc(C(=O)N2Cc3cccn3Cc3ccccc32)cn1 [Example 353, N-[5-(5H-Pyrrolo[2,1-c][1,4]benzodiazepine-10(11H)-ylcarbonyl)-2-pyridinyl]-2-methylfurane-3-carboxamide] | 86 | 83 | 2050 | – | –
Cc1ccc(F)cc1C(=O)Nc1ccc(C(=O)N2Cc3cccn3-c3ccccc32)cn1 [Example 171, N-[5-(Pyrrolo[1,2-a]quinoxalin-5(4H)-ylcarbonyl)-2-pyridinyl]-5-fluoro-2-methylbenzamide] | – | 73 | 1100 | – | –
Cc1ccc(F)cc1C(=O)Nc1ccc(C(=O)N2Cc3ccc(CN(C)C)n3Cc3ccccc32)cn1 [Example 120, N-[5-[[3-[(Dimethylamino)methyl]-[5H-pyrrolo[2,1-c][1,4]benzodiazepin-10(11H)]-yl]carbonyl]-2-pyridinyl]-5-fluoro-2-methylbenzamide] | – | – | – | – | inhibition at 1 µM (oxytocin receptors; dose 1 μM): 8%
CC(C)CNc1ccc(C(=O)N2Cc3cccn3Cc3ccccc32)cn1 [Example 261, 10-[[6-[(2-Methylpropyl)amino]-3-pyridinyl]carbonyl]-10,11-dihydro-5H-pyrrolo[2,1-c][1,4]benzodiazepine] | 32 | – | 150 | 55 | –
O=C(Nc1ccc(C(=O)N2Cc3cccn3Cc3ccccc32)cn1)c1cc(Cl)ccc1Cl [Example 14] | 99 | 96 | 580 | – | –
O=C(Nc1ccc(C(=O)N2Cc3cccn3Cc3ccccc32)cn1)c1c(F)cccc1Cl [Example 18] | 94 | – | 310 | – | inhibition at 5 µM (oxytocin receptors; dose 5 μM): 97%
Nc1ccccc1C(=O)Nc1ccc(C(=O)N2Cc3cccn3Cc3ccccc32)cn1 [Example 354, N-[5-(5H-Pyrrolo[2,1-c][1,4]benzodiazepin-10(11H)-ylcarbonyl)-2-pyridinyl]-2-aminobenzamide] | 86 | – | – | – | inhibition at 1 µM (oxytocin receptors; dose 1 μM): 7%
O=C(Nc1ccc(C(=O)N2Cc3cccn3Cc3ccccc32)cc1)c1cccnc1Oc1ccc(Cl)cc1 [Example 346, N-[4-(5H-Pyrrolo[2,1-c][1,4]benzodiazepin-10(11H)-ylcarbonyl)phenyl]-2-(4-chlorophenyloxy)pyridine-3-carboxamide] | – | – | – | 76 | inhibition at 1 µM (oxytocin receptors; dose 1 μM): 0%
O=C(Nc1ccc(C(=O)N2Cc3cccn3Cc3ccccc32)cn1)c1cc(Br)ccc1Cl [Example 11] | 93 | – | – | – | –
Cc1ccc(F)cc1C(=O)N(CCN(C)C)c1ccc(C(=O)N2Cc3cccn3Cc3ccccc32)cn1 [Example 130, N-[2-(Dimethylamino)ethyl]-N-[5-(5H-pyrrolo[2,1-c][1,4]benzodiazepin-10(11H)-ylcarbonyl)-2-pyridinyl]-5-fluoro-2-methylbenzamide] | – | 57 | – | 92 | –
O=C(Nc1ccc(C(=O)N2Cc3cccn3Cc3ccccc32)cc1)c1cccnc1N1CCOCC1 [Example 339, N-[4-(5H-Pyrrolo[2,1-c][1,4]benzodiazepin-10(11H)-ylcarbonyl)phenyl]-2-(morpholino)-pyridine-3-carboxamide] | 55 | 48 | 8560 | – | –
O=C(Nc1ccc(C(=O)N2Cc3cccn3Cc3ccccc32)cn1)c1ccccc1-c1ccccc1 [Example 10] | 95 | – | – | – | –
Cc1ccc(F)cc1C(=O)N(CCCN(C)C)c1ccc(C(=O)N2Cc3cccn3Cc3ccccc32)cn1 [Example 131, N-[3-(Dimethylamino)propyl]-N-[5-(5H-pyrrolo[2,1-c][1,4]benzodiazepin-10(11H)-ylcarbonyl)-2-pyridinyl]-5-fluoro-2-methylbenzamide] | 82 | 60 | – | – | –
O=C(c1ccc(SC2CCCCC2)nc1)N1Cc2cccn2Cc2ccccc21 [Example 288, 10,11-Dihydro-10-[[6-(cyclohexylthio)-3-pyridinyl]carbonyl]-5H-pyrrolo-[2,1-c][1,4]benzodiazepine] | – | 94 | 1360 | 54 | –
O=C(Nc1ccc(C(=O)N2Cc3cccn3Cc3ccccc32)cc1)c1cccnc1N1CCCCC1 [Example 336, N-[4-(5H-Pyrrolo[2,1-c][1,4]benzodiazepin-10(11H)-ylcarbonyl)phenyl]-2-(1-piperidinyl)-pyridine-3-carboxamide] | 69 | 94 | 1630 | – | –
CC(C)(C)CCNc1ccc(C(=O)N2Cc3cccn3Cc3ccccc32)cn1 [Example 262] | 50 | 76 | 1600 | – | –
Cc1ccc(F)cc1C(=O)Nc1ccc(C(=O)N2Cc3cccn3-c3ncccc32)cn1 [Example 134, N-[5-(Pyrido[3,2-e]pyrrolo[1,2-a]pyrazin-5(6H)-ylcarbonyl)-2-pyridinyl]-5-fluoro-2-methylbenzamide] | – | – | – | 94 | inhibition at 1 µM (oxytocin receptors; dose 1 μM): 63%
Cc1ncccc1C(=O)Nc1ccc(C(=O)N2Cc3cccn3Cc3ccccc32)cn1 [Example 330, N-[5-(5H-Pyrrolo[2,1-c][1,4]benzodiazepin-10(11H)-ylcarbonyl]-2-pyridinyl]-2-methylpyridine-3-carboxamide Hydrochloride] | 79 | – | – | – | Oxytocin Binding Assay % Inhibition (oxytocin receptors; dose 10 μM, Hydrochloride): 93%; IC50 (oxytocin receptors; Hydrochloride): 990 nM
Cc1ccccc1Nc1ccc(C(=O)N2Cc3cccn3Cc3ccccc32)cn1 [Example 301, 10,11-Dihydro-10-[[6-[(2-methylphenyl)amino]-3-pyridinyl]carbonyl]-5H-Pyrrolo[2,1-c][1,4]benzodiazepine] | – | 89 | 860 | 91 | –
O=C(Nc1ccc(C(=O)N2Cc3cccn3Cc3ccccc32)cn1)c1ccccc1[N+](=O)[O-] [Example 43] | – | 99 | 920 | – | –
Cc1ccccc1CNc1ccc(C(=O)N2Cc3cccn3Cc3ccccc32)cn1 [Example 274] | – | – | – | 97 | –
O=C(Nc1ccc(C(=O)N2Cc3cccn3Cc3ccccc32)cn1)c1ccc(F)cc1F [Example 7] | – | 66 | – | 58 | –
COc1ccc(CNc2ccc(C(=O)N3Cc4cccn4Cc4ccccc43)cn2)c(OC)c1 [Example 351] | 56 | – | – | – | inhibition at 1 µM (oxytocin receptors; dose 1 μM): 0%
CCCCOc1ccc(C(=O)N2Cc3cc(CO)nn3Cc3ccccc32)cc1 [Example 344, 5,10-Dihydro-2-hydroxymethyl-5-(4-(4-butyloxy)benzoyl)-4H-pyrazolo[5,1-c][1,4]benzodiazepine] | – | – | 3800 | – | inhibition at 1 µM (oxytocin receptors; dose 1 μM): 58%
O=C(Nc1ccc(C(=O)N2Cc3cccn3Cc3ccccc32)c(Cl)c1)c1ccccc1-c1ccc(C(F)(F)F)cc1 [Example 326] | – | – | – | 91 | inhibition at 1 µM (oxytocin receptors; dose 1 μM): 0%
